Read-outs that look alike come from different tables or passages of the source. One block for each compound: values may come before it. *1 amine or outer side, *2 acyl side, *3 side chain or, on linkers, in order; H or OH if unused. Where a SMILES comes first, the peptide text is derived from it. The star is where a group is joined. DOTA = O=C(O)CN1CCN(CC(=O)O)CCN(CC(=O)*)CCN(CC(=O)O)CC1; γGlu = O=C(O)[CH](CCC(=O)[*:2])N[*:1]; CO = O=C([*:1])[*:2]; Ahx = NCCCCCC(=O)O
How the values were obtained:
PSMA = target: T1, PSMA (Homo sapiens, UniProt Q04609); test: Competitive binding assay: NAAG hydrolysis by PC3-PIP membranes, Amplex Red glutamic acid readout; format: biochemical; conditions: for EC50: PC3-PIP membranes
T1 construct: expressed in transfected cells; host or cells: PC3-PIP cells (washed membrane preparation after freeze/thaw)
Experimental: PC3-PIP PSMA-expressing cells were grown to confluency, harvested in 50 mM Tris-HCl (pH 7.5) and subjected to four freeze/thaw cycles. Cell membranes were washed three times by centrifugation at 12,000g or higher. The cell membranes were diluted to 50 mg/mL in 50 mM Tris-HCl (pH 7.5) (based on wet weight of the solid after centrifugation). Binding assays were conducted in 96 well plates. Phase 1 of the assay used wells containing 100 microliters 50 mM Tris-HCl (pH 7.5) with 4 microns NAAG and 10 microns of PC3-PIP membrane, to which differing concentrations of Compound 1 was added. The 96 well plate was incubated at 37° C. for 2 h. The glutamic acid concentration was measured with the Amplex Red glutamic acid assay kit (Invitrogen-Molecular Probes) using a fluorescent plate reader (530 nm excitation, 590 nm emission). The resulting fluorescence signals were normalized, and normalized fluorescence plotted against the concentration of ligand (log (nm)) (FIG. 1). EC50 was determined according to Eq. 1 (below). [formula]

prostate cancer lesions = conditions: cited from earlier work
[1] = 68Ga-labelled; Rousseau et al.; cited from earlier work

T1 sequence (Q04609 whole entry): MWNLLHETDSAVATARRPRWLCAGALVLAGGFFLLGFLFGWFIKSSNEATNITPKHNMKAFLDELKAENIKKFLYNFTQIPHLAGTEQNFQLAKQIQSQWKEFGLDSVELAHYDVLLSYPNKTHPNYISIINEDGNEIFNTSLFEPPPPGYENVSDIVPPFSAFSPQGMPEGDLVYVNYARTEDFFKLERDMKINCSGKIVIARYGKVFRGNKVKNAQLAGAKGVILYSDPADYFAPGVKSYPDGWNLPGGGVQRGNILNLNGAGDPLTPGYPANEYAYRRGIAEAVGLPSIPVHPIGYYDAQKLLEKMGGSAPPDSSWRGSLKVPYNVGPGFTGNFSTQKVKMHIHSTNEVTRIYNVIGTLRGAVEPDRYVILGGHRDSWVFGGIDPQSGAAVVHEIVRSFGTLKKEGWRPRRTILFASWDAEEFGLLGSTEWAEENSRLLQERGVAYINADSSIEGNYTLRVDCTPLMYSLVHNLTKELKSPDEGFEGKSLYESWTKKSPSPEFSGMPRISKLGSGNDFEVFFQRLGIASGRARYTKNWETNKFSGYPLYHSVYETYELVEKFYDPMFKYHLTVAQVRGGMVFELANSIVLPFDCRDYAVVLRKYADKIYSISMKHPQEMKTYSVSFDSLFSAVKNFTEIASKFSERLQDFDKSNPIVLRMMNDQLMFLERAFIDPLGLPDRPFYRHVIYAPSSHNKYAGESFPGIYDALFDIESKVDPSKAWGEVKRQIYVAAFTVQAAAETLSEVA

EC50 (PSMA; NAAG substrate, 37° C. 2 h, FIG. 1): 0.287 ± 0.064 nM
Ki (PSMA; calculated from the competitive binding assay, read-out: estimated Ki to PSMA): < 0.3 nM
Compound: NC(=O)C(CCCCNC(=O)CN1CCN(CC(=O)O)CCN(CC(=O)O)CCN(CC(=O)O)CC1)NC(=O)C(Cc1ccc(O)cc1)NC(=O)C(CCC(=O)O)NC(=O)C(CCC(=O)O)NC(=O)C(CCC(=O)O)NC(=O)CCCCCNC(=O)CCC(NC(=O)NC(CCC(=O)O)C(=O)O)C(=O)O (stereo not shown) [Compound 1] ({Glu-CO-γGlu-Ahx}-EEEYK(DOTA)-NH2; configuration not given here)

EC50 (PSMA; FIG. 2 and FIG. 3): ~0.1 nM
Compound: O=C(O)CCC(NC(=O)NC(CCCCNC(=O)CCC(NC(=O)CCC(NC(=O)c1ccc(F)nc1)C(=O)O)C(=O)O)C(=O)O)C(=O)O (stereo not shown) [Compound 11]

EC50 (PSMA; FIG. 2 and FIG. 3): 0.39 ± 0.02 nM
Compound: O=C(O)CCC(NC(=O)NC(CCCCNC(=O)CCC(NC(=O)CCC(NC(=O)C(Cc1ccc(O)cc1)NC(=O)CN1CCN(CC(=O)O)CCN(CC(=O)O)CCN(CC(=O)O)CC1)C(=O)O)C(=O)O)C(=O)O)C(=O)O (stereo not shown) [Compound 14, E′K-E!E!Y-DOTA]

Compound: O=C(O)CCc1ccc(O)c(CN(CCN(CC(=O)O)Cc2cc(CCC(=O)NCCCCCC(=O)NCCCC[C@H](NC(=O)N[C@@H](CCC(=O)O)C(=O)O)C(=O)O)ccc2O)CC(=O)O)c1 [PSMA 11, Glu-NH—CO—NH-Lys (Ahx)-[^68Ga(HBEDCC], metal not drawn]
(per patient) lesion detection rate (prostate cancer lesions; PSA <2.2 ng/ml): 60%
(per patient) lesion detection rate (prostate cancer lesions; PSA >2.2 ng/ml): 100%
Biodistribution Blood [1]: 0.31% ± 0.08%
Biodistribution Kidney [1]: 182% ± 33%
Biodistribution Liver [1]: 0.44% ± 0.13%
Biodistribution Muscle [1]: 0.54% ± 0.14%
Biodistribution Salivary Gland [1]: 10.00% ± 2.52%
Biodistribution Spleen [1]: 22.2% ± 7.91%
Biodistribution Tumor [1]: 8.67% ± 1.97%
